From patent publication US11844776B2, “Composition for treatment and/or prevention of peripheral nerve disorder” (OSAKA CITY UNIVERSITY, priority 2016, dated 2023)

Tests used:
[1] = target: m-calpain (derived from porcine kidney) (Sus scrofa, UniProt P43367); assay: Measurement of inhibitory activity against m-calpain; format: biochemical; details: casein substrate, pH 7.4, 30° C. for 60 minutes; read-out: Enzyme inhibitory activity m-Calpain (IC50)
m-calpain (derived from porcine kidney), sequence (P43367 whole entry): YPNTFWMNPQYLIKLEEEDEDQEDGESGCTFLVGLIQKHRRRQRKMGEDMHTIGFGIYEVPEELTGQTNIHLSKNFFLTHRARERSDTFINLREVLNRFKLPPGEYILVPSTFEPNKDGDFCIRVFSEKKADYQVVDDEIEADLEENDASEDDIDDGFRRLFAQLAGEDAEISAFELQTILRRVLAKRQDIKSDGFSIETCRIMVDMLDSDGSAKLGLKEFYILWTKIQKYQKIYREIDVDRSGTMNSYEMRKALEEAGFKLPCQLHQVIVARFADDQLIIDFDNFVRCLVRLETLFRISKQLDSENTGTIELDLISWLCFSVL
m-calpain (derived from porcine kidney), sequence (P04574 whole entry, further chain): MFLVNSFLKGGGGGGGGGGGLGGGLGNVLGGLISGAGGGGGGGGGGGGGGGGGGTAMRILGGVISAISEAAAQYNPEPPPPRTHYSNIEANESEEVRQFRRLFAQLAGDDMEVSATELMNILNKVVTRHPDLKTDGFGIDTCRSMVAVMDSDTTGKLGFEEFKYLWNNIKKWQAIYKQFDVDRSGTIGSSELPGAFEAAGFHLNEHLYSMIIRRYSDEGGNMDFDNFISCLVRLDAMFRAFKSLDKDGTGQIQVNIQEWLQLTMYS

melting point [°C] | Compound | IC50 [1] [nM]
138 to 138.3 | CCNC(=O)C(=O)[C@H](Cc1ccccc1)NC(=O)[C@H](CC(C)C)NC(=O)OCCOC [Compound 1, ((1S)-1-((((1S)-1-Benzyl-2,3-dioxo-3-(ethylamino)propyl)amino)carbonyl)-3-methylbutyl) carbamic acid 2-methoxyethyl ester] | 
158.9 to 160.7 | CCNC(=O)C(=O)[C@H](Cc1ccccc1)NC(=O)[C@H](CC(C)C)NC(=O)O[C@H]1CCOC1 [Compound 2, ((1S)-1-((((1S)-1-Benzyl-2,3-dioxo-3-(ethylamino)propyl)amino)carbonyl)-3-methylbutyl)carbamic acid (3S)-tetrahydrofuran-3-yl ester] | 
140 to 141.8 | CCNC(=O)C(=O)[C@H](Cc1ccccc1)NC(=O)[C@H](CC(C)C)NC(=O)OC1CCOCC1 [Compound 3, ((1S)-1-((((1S)-1-Benzyl-2,3-dioxo-3-(ethylamino)propyl)amino)carbonyl)-3-methylbutyl)carbamic acid tetrahydro-4H-pyran-4-yl ester] | 
112.4 to 113.5 | COCCOC(=O)N[C@@H](CC(C)C)C(=O)N[C@@H](Cc1ccccc1)C(=O)C(=O)NC1CC1 [Compound 4, ((1S)-1-((((1S)-1-Benzyl-2,3-dioxo-3-(cyclopropylamino)propyl)amino)carbonyl)-3-methylbutyl)carbamic acid 2-methoxyethyl ester] | 
169.2 to 170.5 | CC(C)C[C@H](NC(=O)O[C@H]1CCOC1)C(=O)N[C@@H](Cc1ccccc1)C(=O)C(=O)NC1CC1 [Compound 5, ((1S)-1-((((1S)-1-Benzyl-3-(cyclopropylamino)-2,3-dioxopropyl)amino)carbonyl)-3-methylbutyl)carbamic acid (3S)-tetrahydrofuran-3-yl ester] | 
137 to 138.2 | CC(C)C[C@H](NC(=O)OC1CCOCC1)C(=O)N[C@@H](Cc1ccccc1)C(=O)C(=O)NC1CC1 [Compound 6, ((1S)-1-((((1S)-1-Benzyl-3-cyclopropylamino-2,3-dioxopropyl)amino)carbonyl)-3-methylbutyl)carbamic acid tetrahydro-4H-pyran-4-yl ester] | 
108.8 to 109.9 | CCCNC(=O)C(=O)[C@H](Cc1ccccc1)NC(=O)[C@H](CC(C)C)NC(=O)OCCOC [Compound 7, ((1S)-1-((((1S)-1-Benzyl-2,3-dioxo-3-(propylamino)propyl)amino)carbonyl)-3-methylbutyl) carbamic acid 2-methoxyethyl ester] | 
114.2 to 115.3 | COCCOC(=O)N[C@@H](CC(C)C)C(=O)N[C@@H](Cc1ccccc1)C(=O)C(=O)NC1CCC1 [Compound 8, ((1S)-1-((((1S)-1-Benzyl-2,3-dioxo-3-(cyclobutylamino)propyl)amino)carbonyl)-3-methylbutyl) carbamic acid 2-methoxyethyl ester] | 
94 to 95.2 | CCCCNC(=O)C(=O)[C@H](Cc1ccccc1)NC(=O)[C@H](CC(C)C)NC(=O)OCCOC [Compound 9, ((1S)-1-((((1S)-1-Benzyl-3-butylamino-2,3-dioxopropyl)amino)carbonyl)-3-methylbutyl) carbamic acid 2-methoxyethyl ester] | 
152.5 to 153.9 | COCCOC(=O)N[C@@H](CC(C)C)C(=O)N[C@@H](Cc1ccccc1)C(=O)C(=O)NCC(F)(F)F [Compound 10, ((1S)-1-((((1S)-1-Benzyl-2,3-dioxo-3-(2,2,2-trifluoroethylamino)propyl)amino)carbonyl)-3-methylbutyl) carbamic acid 2-methoxyethyl ester] | 
141.9 to 143.5 | COCCOC(=O)N[C@@H](CC(C)C)C(=O)N[C@@H](Cc1ccccc1)C(=O)C(=O)NC1Cc2ccccc2C1 [Compound 11, ((1S)-1-((((1S)-1-Benzyl-2,3-dioxo-3-(2-indanylamino)propyl)amino)carbonyl)-3-methylbutyl)carbamic acid 2-methoxyethyl ester] | 
127 to 127.9 | COCCNC(=O)C(=O)[C@H](Cc1ccccc1)NC(=O)[C@H](CC(C)C)NC(=O)OCCOC [Compound 12, ((1S)-1-((((1S)-1-Benzyl-2,3-dioxo-3-(2-methoxyethylamino)propyl)amino)carbonyl)-3-methylbutyl) carbamic acid 2-methoxyethyl ester] | 
119.1 to 120.4 | CCNC(=O)C(=O)[C@H](CCc1ccccc1)NC(=O)[C@H](CC(C)C)NC(=O)OCCOC [Compound 13, ((1S)-1-((((1S)-2,3-Dioxo-3-ethylamino-1-(phenylethyl)propyl)amino)carbonyl)-3-methylbutyl)carbamic acid 2-methoxyethyl ester] | 
111.9 to 114.5 | CCNC(=O)C(=O)[C@H](CCc1ccccc1)NC(=O)[C@H](CC(C)C)NC(=O)O[C@H]1CCOC1 [Compound 14, ((1S)-1-((((1S)-2,3-Dioxo-3-ethylamino-1-(phenylethyl)propyl)amino)carbonyl)-3-methylbutyl)carbamic acid (3S)-tetrahydrofuran-3-yl ester] | 
109.7 to 111.1 | COCCOC(=O)N[C@@H](CC(C)C)C(=O)N[C@@H](CCc1ccccc1)C(=O)C(=O)NC1CC1 [Compound 15, ((1S)-1-((((1S)-2,3-Dioxo-3-cyclopropylamino-1-(phenylethyl)propyl)amino)carbonyl)-3-methylbutyl)carbamic acid 2-methoxyethyl ester] | 
115.8 to 116.2 | CC(C)C[C@H](NC(=O)O[C@H]1CCOC1)C(=O)N[C@@H](CCc1ccccc1)C(=O)C(=O)NC1CC1 [Compound 16] | 
99.7 to 100.5 | COCCOC(=O)N[C@@H](CC(C)C)C(=O)N[C@@H](CC(C)C)C(=O)C(=O)NCCOc1ccccc1 [Compound 21, ((1S)-1-((((1S)-2,3-Dioxo-1-(2-methylpropyl)-3-(2-phenoxyethyl)aminopropyl)amino)carbonyl)-3-methylbutyl) carbamic acid 2-methoxyethyl ester] | 
53.3 to 54.1 | COCCOCCOC(=O)N[C@@H](CC(C)C)C(=O)N[C@@H](CC(C)C)C(=O)C(=O)NCCOc1ccccc1 [Compound 22, ((1S)-1-((((1S)-2,3-Dioxo-1-(2-methylpropyl)-3-(2-phenoxyethyl)aminopropyl)amino)carbonyl)-3-methylbutyl) carbamic acid 5-methoxy-3-oxapentyl ester] | 

Compound | melting point [°C] | IC50 [1] [nM]
COCCOCCOCCOCCOC(=O)N[C@@H](CC(C)C)C(=O)N[C@@H](Cc1ccccc1)C(=O)C(=O)NC1CC1 [Compound 19, ((1S)-1-((((1S)-1-Benzyl-2,3-dioxo-3-(cyclopropylamino)propyl)amino)carbonyl)-3-methylbutyl)carbamic acid 11-methoxy-3,6,9-trioxaundecanyl ester] | 97.5 to 98.5 | 170
COCCOCCOCCOCCOCCOC(=O)N[C@@H](CC(C)C)C(=O)N[C@@H](Cc1ccccc1)C(=O)C(=O)NC1CC1 [Compound 20, ((1S)-1-((((1S)-1-Benzyl-2,3-dioxo-3-(cyclopropylamino)propyl)amino)carbonyl)-3-methylbutyl)carbamic acid 14-methoxy-3,6,9,12-tetraoxatetradecanyl ester] | 98.5 to 99.9 | 190
